Reference: patent publication EP0025288A1, “Derivatives of monic acid, processes for their preparation, compositions containing them and their preparation” (priority 1979, dated 1981)
≈ marks a conversion by molar mass, not a printed value.

Assays:
[1] = tested on: S dublin S7; experiment: MIC, veterinary bacteria; type: cell-based; settings: veterinary bacteria (Table 2), read-out: MIC
[2] = tested on: Corynebacterium pyogenes CY1; experiment: MIC, veterinary bacteria; type: cell-based; settings: veterinary bacteria (Table 2), read-out: MIC
[3] = tested on: M. gallisepticum S6; experiment: MIC, anti-mycoplasmal, Friis broth solidified with 0.9% agarose; type: cell-based; settings: Mycoplasmoides gallisepticum, 144 h, inoculum 10^3 to 10^5 C.F.U., 6 days incubation at 37°C, read-out: in vitro MIC
[4] = tested on: M. dispar NCTC 10125; experiment: as above; type: cell-based; settings: 144 h, inoculum 10^3 to 10^5 C.F.U., 6 days incubation at 37°C, read-out: in vitro MIC
[5] = tested on: Strep dysgalaciae SPD1; experiment: MIC, veterinary bacteria; type: cell-based; settings: veterinary bacteria (Table 2), read-out: MIC
[6] = tested on: Past multocida PA1; experiment: MIC, veterinary bacteria; type: cell-based; settings: veterinary bacteria (Table 2), read-out: MIC
[7] = tested on: Past multocida PA2; experiment: MIC, veterinary bacteria; type: cell-based; settings: veterinary bacteria (Table 2), read-out: MIC
[8] = tested on: Strep suis (group D) SPS11; experiment: MIC, veterinary bacteria; type: cell-based; settings: veterinary bacteria (Table 2), read-out: MIC
[9] = tested on: M. suipneumoniae NB12; experiment: MIC, anti-mycoplasmal, Friis broth solidified with 0.9% agarose; type: cell-based; settings: Mesomycoplasma hyopneumoniae, 144 h, inoculum 10^3 to 10^5 C.F.U., 6 days incubation at 37°C, read-out: in vitro MIC
[10] = tested on: Staph aureus 152 (pen sens); experiment: MIC, veterinary bacteria; type: cell-based; settings: Staphylococcus aureus, veterinary bacteria (Table 2), read-out: MIC
[11] = tested on: M. suipneumoniae HK(2); experiment: MIC, anti-mycoplasmal, Friis broth solidified with 0.9% agarose; type: cell-based; settings: Mesomycoplasma hyopneumoniae, 144 h, inoculum 10^3 to 10^5 C.F.U., 6 days incubation at 37°C, read-out: in vitro MIC
[12] = Serum binding by ultrafiltration; type: in vitro ADME, pig; settings: pig, serum, compounds at 8 mcg/ml, microbiological assay (B. subtilis ATCC 6633), read-out: % bound to pig serum (converted)
Description: Serum binding was assessed by ultrafiltration of procine serum containing compounds at 8 mcg/ml, and through an Amicon CF50A ultrafiltration cone. Separation of ultrafiltrate was achieved by centrifugation.

[13] = tested on: M. hyosynoviae ATCC 25591; experiment: MIC, anti-mycoplasmal, Friis broth solidified with 0.9% agarose; type: cell-based; settings: 144 h, inoculum 10^3 to 10^5 C.F.U., 6 days incubation at 37°C, read-out: in vitro MIC
[14] = tested on: E coli E1; experiment: MIC, veterinary bacteria; type: cell-based; settings: veterinary bacteria (Table 2), read-out: MIC
[15] = tested on: M. pneumoniae ATCC 15492; experiment: MIC, anti-mycoplasmal, Friis broth solidified with 0.9% agarose; type: cell-based; settings: Mycoplasmoides pneumoniae, ATCC15492, 144 h, inoculum 10^3 to 10^5 C.F.U., 6 days incubation at 37°C, read-out: in vitro MIC
[16] = tested on: Erysipelothrix rhusiopathiae NCTC 8163; experiment: MIC, veterinary bacteria; type: cell-based; settings: NCTC8163, veterinary bacteria (Table 2), read-out: MIC
[17] = tested on: M. suipneumoniae NCTC 10110; experiment: MIC, anti-mycoplasmal, Friis broth solidified with 0.9% agarose; type: cell-based; settings: Mesomycoplasma hyopneumoniae, NCTC10110, 144 h, inoculum 10^3 to 10^5 C.F.U., 6 days incubation at 37°C, read-out: in vitro MIC
[18] = tested on: M. suipneumoniae Str. 11; experiment: as above; type: cell-based; settings: Mesomycoplasma hyopneumoniae, 144 h, inoculum 10^3 to 10^5 C.F.U., 6 days incubation at 37°C, read-out: in vitro MIC
[19] = tested on: M. bovis NCTC 10131; experiment: microbe, parasite or virus in culture; type: cell-based; settings: NCTC10131, 144 h, read-out: in vitro MIC
[20] = tested on: M. suipneumoniae ATCC 25095; experiment: MIC, anti-mycoplasmal, Friis broth solidified with 0.9% agarose; type: cell-based; settings: Mesomycoplasma hyopneumoniae, ATCC25095, 144 h, inoculum 10^3 to 10^5 C.F.U., 6 days incubation at 37°C, read-out: in vitro MIC
[21] = tested on: M. suipneumoniae UCD 1; experiment: as above; type: cell-based; settings: Mesomycoplasma hyopneumoniae, UCD1, 144 h, inoculum 10^3 to 10^5 C.F.U., 6 days incubation at 37°C, read-out: in vitro MIC
[22] = tested on: M. hyorhinis ATCC 25021; experiment: as above; type: cell-based; settings: Mesomycoplasma hyorhinis, ATCC25021, 144 h, inoculum 10^3 to 10^5 C.F.U., 6 days incubation at 37°C, read-out: in vitro MIC
[23] = tested on: Strep uberis SPU1; experiment: MIC, veterinary bacteria; type: cell-based; settings: veterinary bacteria (Table 2), read-out: MIC
[24] = tested on: M. suipneumoniae JF 435; experiment: MIC, anti-mycoplasmal, Friis broth solidified with 0.9% agarose; type: cell-based; settings: Mesomycoplasma hyopneumoniae, JF435, 144 h, inoculum 10^3 to 10^5 C.F.U., 6 days incubation at 37°C, read-out: in vitro MIC
[25] = tested on: Past Haemolytica PA5; experiment: MIC, veterinary bacteria; type: cell-based; settings: veterinary bacteria (Table 2), read-out: MIC
[26] = tested on: Staph aureus Oxford; experiment: MIC, veterinary bacteria; type: cell-based; settings: Staphylococcus aureus, veterinary bacteria (Table 2), read-out: MIC
[27] = tested on: M. suipneumoniae MS 16; experiment: MIC, anti-mycoplasmal, Friis broth solidified with 0.9% agarose; type: cell-based; settings: Mesomycoplasma hyopneumoniae, MS16, 144 h, inoculum 10^3 to 10^5 C.F.U., 6 days incubation at 37°C, read-out: in vitro MIC
[28] = tested on: M. bovigenitalium ATCC 14173; experiment: as above; type: cell-based; settings: 144 h, inoculum 10^3 to 10^5 C.F.U., 6 days incubation at 37°C, read-out: in vitro MIC
[29] = tested on: Strep agalactiae SPA1; experiment: MIC, veterinary bacteria; type: cell-based; settings: veterinary bacteria (Table 2), read-out: MIC
[30] = tested on: M. suipneumoniae J2206/183b; experiment: MIC, anti-mycoplasmal, Friis broth solidified with 0.9% agarose; type: cell-based; settings: Mesomycoplasma hyopneumoniae, 144 h, inoculum 10^3 to 10^5 C.F.U., 6 days incubation at 37°C, read-out: in vitro MIC
[31] = tested on: Bord bronchisptica BO9; experiment: MIC, veterinary bacteria; type: cell-based; settings: veterinary bacteria (Table 2), read-out: MIC
[32] = tested on: M. suipneumoniae PW/C/210; experiment: MIC, anti-mycoplasmal, Friis broth solidified with 0.9% agarose; type: cell-based; settings: Mesomycoplasma hyopneumoniae, 144 h, inoculum 10^3 to 10^5 C.F.U., 6 days incubation at 37°C, read-out: in vitro MIC
[33] = tested on: S typhimurium S18; experiment: MIC, veterinary bacteria; type: cell-based; settings: veterinary bacteria (Table 2), read-out: MIC
[34] = tested on: M. suipneumoniae LABER; experiment: MIC, anti-mycoplasmal, Friis broth solidified with 0.9% agarose; type: cell-based; settings: Mesomycoplasma hyopneumoniae, 144 h, inoculum 10^3 to 10^5 C.F.U., 6 days incubation at 37°C, read-out: in vitro MIC
[35] = tested on: M. hyorhinis ATCC 23234; experiment: as above; type: cell-based; settings: Mesomycoplasma hyorhinis, ATCC23234, 144 h, inoculum 10^3 to 10^5 C.F.U., 6 days incubation at 37°C, read-out: in vitro MIC
[36] = tested on: M. suipneumoniae TAM 6N; experiment: as above; type: cell-based; settings: Mesomycoplasma hyopneumoniae, TAM6N, 144 h, inoculum 10^3 to 10^5 C.F.U., 6 days incubation at 37°C, read-out: in vitro MIC
[37] = tested on: E coli NCTC 10418; experiment: MIC, veterinary bacteria; type: cell-based; settings: veterinary bacteria (Table 2), read-out: MIC
[38] = tested on: Bord bronchiseptica BO8; experiment: MIC, veterinary bacteria; type: cell-based; settings: veterinary bacteria (Table 2), read-out: MIC
[39] = tested on: Staph aureus B4 (pen resis); experiment: MIC, veterinary bacteria; type: cell-based; settings: Staphylococcus aureus, veterinary bacteria (Table 2), read-out: MIC

Compound | MIC [1] | MIC [2] | MIC [3] | MIC [4] | MIC [5] | MIC [6] | MIC [7] | MIC [8] | MIC [9] | MIC [10] | MIC [11] | MIC [13] | MIC [14] | MIC [15] | MIC [16] | MIC [17] | MIC [18] | MIC [19] | MIC [20] | MIC [21] | other results
CC(=O)Nc1ccc(C(=O)CCCOC(=O)C=C(C)CC2OCC(CC3OC3C(C)C(C)O)C(O)C2O)cc1 (centres unmarked) [Example 9, 4-(4-Acetamidophenyl)-4-oxobutyl monate A] | > 80 µg/mL | > 80 µg/mL | 2.5 µg/mL (≈ 4.57 µM) | 0.1 µg/mL (≈ 0.183 µM) | 0.156 µg/mL (≈ 0.285 µM) | 2.5 µg/mL (≈ 4.57 µM) | 0.625 µg/mL (≈ 1.14 µM) | 2.5 µg/mL (≈ 4.57 µM) | 0.5 µg/mL (≈ 0.913 µM) | 0.625 µg/mL (≈ 1.14 µM) | 0.5 µg/mL (≈ 0.913 µM) | 0.1 µg/mL (≈ 0.183 µM) | > 80 µg/mL | 0.5 µg/mL (≈ 0.913 µM) | 20 µg/mL (≈ 36.5 µM) | 0.5 µg/mL (≈ 0.913 µM) | 0.25 µg/mL (≈ 0.457 µM) | ≤ 0.01 µg/mL | 0.5 µg/mL (≈ 0.913 µM) | 0.5 µg/mL (≈ 0.913 µM) | fraction unbound [12]: 0.138; MIC [22]: 0.25 µg/mL (≈ 0.457 µM); MIC [23]: 0.156 µg/mL (≈ 0.285 µM); MIC [24]: 0.5 µg/mL (≈ 0.913 µM); MIC [25]: 20 µg/mL (≈ 36.5 µM); MIC [26]: 0.625 µg/mL (≈ 1.14 µM); MIC [27]: 0.25 µg/mL (≈ 0.457 µM); MIC [28]: 0.05 µg/mL (≈ 0.0913 µM); MIC [29]: 0.625 µg/mL (≈ 1.14 µM); MIC [30]: 0.5 µg/mL (≈ 0.913 µM); MIC [31]: 20 µg/mL (≈ 36.5 µM); MIC [32]: 0.25 µg/mL (≈ 0.457 µM); MIC [33]: > 80 µg/mL; MIC [34]: 0.25 µg/mL (≈ 0.457 µM); MIC [35]: 0.25 µg/mL (≈ 0.457 µM); MIC [36]: 0.5 µg/mL (≈ 0.913 µM); MIC [37]: > 80 µg/mL; MIC [38]: > 80 µg/mL; MIC [39]: 1.25 µg/mL (≈ 2.28 µM)
CC(=CC(=O)OC1CCCC(=O)CCC1)CC1OCC(CC2OC2C(C)C(C)O)C(O)C1O (centres unmarked) [Example 10, Cyclooctan-5-onyl monate A] | > 80 µg/mL | 80 µg/mL (≈ 171 µM) | > 10 µg/mL | 0.5 µg/mL (≈ 1.07 µM) | 5 µg/mL (≈ 10.7 µM) | 40 µg/mL (≈ 85.4 µM) | 1.25 µg/mL (≈ 2.67 µM) | 80 µg/mL (≈ 171 µM) | 2.5 µg/mL (≈ 5.34 µM) | 2.5 µg/mL (≈ 5.34 µM) | 2.5 µg/mL (≈ 5.34 µM) | 0.25 µg/mL (≈ 0.534 µM) | > 80 µg/mL | 10 µg/mL (≈ 21.3 µM) | 80 µg/mL (≈ 171 µM) | 1 µg/mL (≈ 2.13 µM) | 1 µg/mL (≈ 2.13 µM) | 0.025 µg/mL (≈ 0.0534 µM) | 1 µg/mL (≈ 2.13 µM) | 1 µg/mL (≈ 2.13 µM) | MIC [22]: 1 µg/mL (≈ 2.13 µM); MIC [23]: 1.25 µg/mL (≈ 2.67 µM); MIC [24]: 2.5 µg/mL (≈ 5.34 µM); MIC [25]: 40 µg/mL (≈ 85.4 µM); MIC [26]: 2.5 µg/mL (≈ 5.34 µM); MIC [27]: 1 µg/mL (≈ 2.13 µM); MIC [28]: 0.05 µg/mL (≈ 0.107 µM); MIC [29]: 10 µg/mL (≈ 21.3 µM); MIC [30]: 2.5 µg/mL (≈ 5.34 µM); MIC [31]: 80 µg/mL (≈ 171 µM); MIC [32]: 1 µg/mL (≈ 2.13 µM); MIC [33]: > 80 µg/mL; MIC [34]: 1 µg/mL (≈ 2.13 µM); MIC [35]: 1 µg/mL (≈ 2.13 µM); MIC [36]: 2.5 µg/mL (≈ 5.34 µM); MIC [37]: > 80 µg/mL; MIC [38]: > 80 µg/mL; MIC [39]: 2.5 µg/mL (≈ 5.34 µM)
